This is an account of results in patent US20110028360A1, “ORGANIC CORROSION INHIBITOR PACKAGE FOR ORGANIC ACIDS” (M-I DRILLING FLUIDS U.K. LIMITED, priority 2008, published 2011).

A short description of data set [1]: Biodegradation according to OECD 301B. On the procedure: (§1) Propoxylated prop-2-yn-1-ol, as a raw material for the corrosion inhibitor compositions disclosed herein, was tested for ecotoxicology. Biodegradation was measured according to OECD 301B. EC50 Toxicity was measured according to ISO/DP 10253. Bioaccumulation log Pow was measured according to OECD 117.
Data set [2] is described as follows: EC50 Toxicity according to ISO/DP 10253. Here is the method: as §1
Data set [3] can be described thus: Bioaccumulation log Pow according to OECD 117. The class given is physicochemical. Here is the method: as §1

Consider propoxylated prop-2-yn-1-ol, for which the Biodegradation in data set [1] is reported as 100% (OECD 301B). Moreover, the Toxicity in data set [2] turned out to be 100 mg/L. For the same substance, the “Bioaccumulation Log Pow” value in data set [3] came to 2.
